Source: EP4635969A1, “NOVEL GLUCOCORTICOID, METHOD FOR PREPARING SAME, AND USE THEREOF” (Tianjin Pharmaceutical Biotechnology Co., Ltd., priority 2022, dated 2024)
Read-outs that look alike come from different tables or passages of the source.

Target: T1, progesterone receptor (PR) (Homo sapiens, UniProt P06401)
T1 sequence (P06401 678-933): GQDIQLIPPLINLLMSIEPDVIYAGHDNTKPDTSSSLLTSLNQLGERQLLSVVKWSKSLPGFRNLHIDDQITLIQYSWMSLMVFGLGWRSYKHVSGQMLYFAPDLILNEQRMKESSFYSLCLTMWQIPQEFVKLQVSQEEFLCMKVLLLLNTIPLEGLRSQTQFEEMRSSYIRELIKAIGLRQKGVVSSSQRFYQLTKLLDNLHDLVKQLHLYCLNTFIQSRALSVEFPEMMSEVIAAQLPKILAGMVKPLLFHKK
Test: Assay for agonist activity on progesterone receptor (luciferase reporter, HEK293 cells transfected with pBIND-PR plasmid)
Format: cell-based
Details: for Target selectivity PR/GR: ratio of EC50 values
Summary of the method: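 HEK293 cells transiently transfected with pBIND-MR or pBIND-PR, seeded in phenol red-free DMEM with 5% charcoal-stripped serum. Compounds tested as 12-point 4-fold dilutions from 50 µM in duplicate, 0.1% DMSO blank. Luciferase luminescence read, EC50 by nonlinear fit.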

[1] = EC50 of agonist activity, HEK293 reporter cells, top concentration 50 µM, read-out: Nuclear receptor enzyme activity (nM) PR

SMILES	EC50 [nM]	Target selectivity PR/GR	EC50 [1] [nM]
C[C@]12C=CC(=O)C=C1CC[C@H]1[C@@H]3C[C@H]4OC(c5ccc(COC6CCOC6=O)cc5)O[C@@]4(C(=O)CO)[C@@]3(C)C[C@H](O)[C@@]12F (stereo partly drawn) [Compound 16, (6aS,6bR,7S,8aS,8bS,11aR,12aS,12bS)-6b-Fluoro-7-hydroxy-8b-(2-hydroxyacetyl)-6a,8a-dimethyl-10-(4-(((2-oxotetrahydrofuran-3-yl)oxy)methyl)phenyl)-1,2,6a,6b,7,8,8a,8b,11a,12,12a,12b-do decahydro-4H-naphtho[2',1':4,5]indeno[1,2-d][1,3]dioxol-4-one]	> 50000	> 1.2×10^5	–
C[C@]12C=CC(=O)C=C1CC[C@H]1[C@@H]3C[C@H]4OC(c5ccc(CSC6CCOC6=O)nc5)O[C@@]4(C(=O)CO)[C@@]3(C)C[C@H](O)[C@@]12F (stereo partly drawn) [Compound 47, (6aS,6bR,7S,8aS,8bS,11aR,12aS,12bS)-6b-Fluoro-7-hydroxy-8b-(2-hydroxyacetyl)-6a,8a-dimethyl-10-(6-(((2-oxotetrahydrofuran-3-yl)thio)methyl)pyridin-3-yl)-1,2,6a,6b,7,8,8a,8b,11a,12,12a,12 b-dodecahydro-4H-naphtho[2',1':4,5]indeno[1,2-d][1,3]dioxol-4-one]	> 50000	> 1.5×10^5	–
C[C@]12C=CC(=O)C=C1CC[C@H]1[C@@H]3C[C@H]4OC(c5ccc(CSC6CCOC6=O)cc5)O[C@@]4(C(=O)CO)[C@@]3(C)C[C@H](O)[C@@]12F (stereo partly drawn) [Compound 17, (6aS,6bR,7S,8aS,8bS,11aR,12aS,12bS)-6b-Fluoro-7-hydroxy-8b-(2-hydroxyacetyl)-6a,8a-dimethyl-10-(4-(((2-oxotetrahydrofuran-3-yl)thio)methyl)phenyl)-1,2,6a,6b,7,8,8a,8b,11a,12,12a,12b-do decahydro-4H-naphtho[2',1':4,5]indeno[1,2-d][1,3]dioxol-4-one]	–	> 1.7×10^5	> 50000
C[C@]12C=CC(=O)C=C1[C@@H](F)C[C@H]1[C@@H]3C[C@H]4OC(c5ccc(CSC6CCOC6=O)cc5)O[C@@]4(C(=O)SCF)[C@@]3(C)C[C@H](O)[C@@]12F (stereo partly drawn) [Compound 34, S-(Fluoromethyl) (2S,6aS,6bR,7S,8aS,8bS,11aR,12aS,12bS)-2,6b-difluoro-7-hydroxy-6a,8a-dimethyl-4-oxo-10-(4-( ((2-oxotetrahydrofuran-3-yl)thio)methyl)phenyl)-1,2,4,6a,6b,7,8,8a,11a,12,12a,12b-dodecahydro-8bH-naphtho[2',1':4,5]indeno[1,2-d][1,3]dioxole-8b-carbothioate]	> 50000	> 5.0×10^5	–
C[C@]12C=CC(=O)C=C1[C@@H](F)C[C@H]1[C@@H]3C[C@H]4OC(c5ccc(CSC6CCOC6=O)cc5)O[C@@]4(C(=O)OCF)[C@@]3(C)C[C@H](O)[C@@]12F (stereo partly drawn) [Compound 36, Fluoromethyl (2S,6aS,6bR,7S,8aS,8bS,11aR,12aS,12bS)-2,6b-difluoro-7-hydroxy-6a,8a-dimethyl-4-oxo-10-(4-( ((2-oxotetrahydrofuran-3-yl)thio)methyl)phenyl)-1,2,4,6a,6b,7,8,8a,11a,12,12a,12b-dodecahydro-8bH-naphtho[2',1':4,5]indeno[1,2-d][1,3]dioxole-8b-carboxylate]	> 50000	> 4.2×10^5	–
C[C@]12C=CC(=O)C=C1[C@@H](F)C[C@H]1[C@@H]3C[C@H]4OC(c5ccc(CSC6CCOC6=O)cc5)O[C@@]4(C(=O)SCC#N)[C@@]3(C)C[C@H](O)[C@@]12F (stereo partly drawn) [Compound 35, S-(Cyanomethyl) (2S,6aS,6bR,7S,8aS,8bS,11aR,12aS,12bS)-2,6b-difluoro-7-hydroxy-6a,8a-dimethyl-4-oxo-10-(4-( ((2-oxotetrahydrofuran-3-yl)thio)methyl)phenyl)-1,2,4,6a,6b,7,8,8a,11a,12,12a,12b-dodecahydro-8bH-naphtho[2',1':4,5]indeno[1,2-d][1,3]dioxole-8b-carbothioate]	> 50000	> 2.4×10^5	–
C[C@]12C=CC(=O)C=C1CC[C@H]1[C@@H]3C[C@H]4OC(c5ccc(CSC6CCOC6=O)cc5)O[C@@]4(C(=O)CO)[C@@]3(C)C[C@H](O)[C@@]12Cl (stereo partly drawn) [Compound 23, (6aS,6bR,7S,8aS,8bS,11aR,12aS,12bS)-6b-Chloro-7-hydroxy-8b-(2-hydroxyacetyl)-6a,8a-dimethyl-10-(4-(((2-oxotetrahydrofuran-3-yl)thio)methyl)phenyl)-1,2,6a,6b,7,8,8a,8b,11a,12,12a,12b-do decahydro-4H-naphtho[2',1':4,5]indeno[1,2-d][1,3]dioxol-4-one]	–	> 2.4×10^5	> 50000
C[C@]12C=CC(=O)C=C1CC[C@H]1[C@@H]3C[C@H]4OC(c5ccc(COC6CCOC6=O)cc5)O[C@@]4(C(=O)CO)[C@@]3(C)C[C@H](O)[C@@]12Cl (stereo partly drawn) [Compound 22, (6aS,6bR,7S,8aS,8bS,11aR,12aS,12bS)-6b-Chloro-7-hydroxy-8b-(2-hydroxyacetyl)-6a,8a-dimethyl-10-(4-(((2-oxotetrahydrofuran-3-yl)oxy)methyl)phenyl)-1,2,6a,6b,7,8,8a,8b,11a,12,12a,12b-do decahydro-4H-naphtho[2',1':4,5]indeno[1,2-d][1,3]dioxol-4-one]	> 50000	> 9.1×10^4	–
